Here are results for three substances from ChEMBL document CHEMBL1909046, “DrugMatrix in vitro pharmacology data”.

System in one assay: not listed separately
Kind of assay: DRUGMATRIX: GABAA, Muscimol, Central radioligand binding (ligand: [3H] Muscimol). As to conditions: Not Active = under 50% inhibition at 10 µM. It counts as cell membranes, Rattus norvegicus, Wistar, Brain, Membrane.
COBALT(II) ACETYLACETONATE: the IC50 result was “Not Active” and the Ki entry was “Not Active”.
As to INSULIN HUMAN, the IC50 result is on record as “Not Active” and the Ki result was “Not Active”.
Regarding POLYVINYL ALCOHOL, the IC50 result was “Not Active” and the Ki result is on record as “Not Active”.

The target in the next assay is T1, Angiotensin-converting enzyme (Oryctolagus cuniculus, UniProt P12822).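 Note: enzymatic inhibition of angiotensin-converting enzyme measured with FAPGG as the substrate; in other assays of this panel Not Active means under 50% inhibition at 10 µM.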
T1 sequence (P12822 whole entry): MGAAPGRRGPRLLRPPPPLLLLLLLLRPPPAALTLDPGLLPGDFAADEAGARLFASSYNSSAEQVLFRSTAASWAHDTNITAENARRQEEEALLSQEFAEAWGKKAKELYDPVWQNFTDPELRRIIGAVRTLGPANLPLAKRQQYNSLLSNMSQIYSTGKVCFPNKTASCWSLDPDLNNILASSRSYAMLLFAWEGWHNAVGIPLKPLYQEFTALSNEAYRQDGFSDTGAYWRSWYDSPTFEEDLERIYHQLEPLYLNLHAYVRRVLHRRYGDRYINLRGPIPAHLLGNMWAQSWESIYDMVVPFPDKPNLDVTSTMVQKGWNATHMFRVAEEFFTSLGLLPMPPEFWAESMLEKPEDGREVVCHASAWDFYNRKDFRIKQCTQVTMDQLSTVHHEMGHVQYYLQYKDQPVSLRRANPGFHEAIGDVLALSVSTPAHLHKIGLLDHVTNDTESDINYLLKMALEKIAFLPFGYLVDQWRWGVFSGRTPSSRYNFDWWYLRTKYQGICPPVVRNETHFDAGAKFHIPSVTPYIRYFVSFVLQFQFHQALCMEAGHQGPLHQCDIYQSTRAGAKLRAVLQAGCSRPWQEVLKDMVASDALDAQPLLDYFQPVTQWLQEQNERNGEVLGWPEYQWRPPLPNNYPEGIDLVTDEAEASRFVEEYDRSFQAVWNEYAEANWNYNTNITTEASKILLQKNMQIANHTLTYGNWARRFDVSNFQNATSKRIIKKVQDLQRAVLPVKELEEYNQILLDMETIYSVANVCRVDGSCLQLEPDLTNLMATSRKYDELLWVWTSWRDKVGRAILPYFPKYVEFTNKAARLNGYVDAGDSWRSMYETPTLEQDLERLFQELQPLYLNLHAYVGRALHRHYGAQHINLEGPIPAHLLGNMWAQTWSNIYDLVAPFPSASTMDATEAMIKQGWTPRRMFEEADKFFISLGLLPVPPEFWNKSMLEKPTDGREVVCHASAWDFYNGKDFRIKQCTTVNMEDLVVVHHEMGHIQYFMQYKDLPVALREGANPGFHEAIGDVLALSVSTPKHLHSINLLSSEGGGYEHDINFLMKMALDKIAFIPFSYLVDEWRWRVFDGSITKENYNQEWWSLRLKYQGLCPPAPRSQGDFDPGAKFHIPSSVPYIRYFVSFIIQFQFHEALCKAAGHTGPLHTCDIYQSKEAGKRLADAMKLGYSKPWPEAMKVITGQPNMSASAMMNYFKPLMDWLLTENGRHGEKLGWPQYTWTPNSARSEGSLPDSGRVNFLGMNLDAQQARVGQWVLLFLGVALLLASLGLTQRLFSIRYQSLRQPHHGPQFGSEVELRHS
Test: not given
It counts as tissue-based, Lung.
Settings: not given
COBALT(II) ACETYLACETONATE: the IC50 entry is “Not Active” and the Ki entry is “Not Active”.
Regarding INSULIN HUMAN, the IC50 entry is given as “Not Active” and the Ki result was “Not Active”.
As to POLYVINYL ALCOHOL, the IC50 result was “Not Active” and the Ki entry was “Not Active”.

System in the next assay: not listed separately
Kind of assay: DRUGMATRIX: Calcium Channel Type L, Phenylalkylamine radioligand binding (ligand: [3H] (-)-Desmethoxyverapamil (D-888)). It is filed as cell membranes, Rattus norvegicus, Wistar, Brain, Membrane. To be noted: Not Active = under 50% inhibition at 10 µM.
Consider COBALT(II) ACETYLACETONATE, for which the IC50 entry is “Not Active” and the Ki entry is recorded as “Not Active”.
As for INSULIN HUMAN, the IC50 result is recorded as “Not Active” and the Ki entry is on record as “Not Active”.
As for POLYVINYL ALCOHOL, the IC50 entry is reported as “Not Active” and the Ki entry is “Not Active”.

System in another assay: not listed separately
As to the kind of experiment: DRUGMATRIX: Glutamate, NMDA, Agonism radioligand binding (ligand: [3H] CGP-39653). It is filed as cell membranes, Rattus norvegicus, Wistar, Cerebral cortex, Membrane. As to conditions: Not Active = under 50% inhibition at 10 µM.
With COBALT(II) ACETYLACETONATE, the IC50 result is given as “Not Active” and the Ki entry is recorded as “Not Active”.
On to INSULIN HUMAN, for which the IC50 entry is “Not Active” and the Ki entry is on record as “Not Active”.
With POLYVINYL ALCOHOL, the IC50 entry is reported as “Not Active” and the Ki entry is “Not Active”.

In a further assay the target is Aldo-keto reductase family 1 member B1 (Rattus norvegicus, UniProt P07943). As to the kind of experiment: biochemical. It counts as tissue-based, Lens of camera-type eye.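 Note: inhibition of aldose reductase enzyme activity, measured with DL-glyceraldehyde as the substrate; in other assays of this panel Not Active means under 50% inhibition at 10 µM.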
Settings: not given
For the substance COBALT(II) ACETYLACETONATE, the IC50 result is listed as “Not Active” and the Ki result is given as “Not Active”.
For INSULIN HUMAN, the IC50 result was “Not Active” and the Ki result is reported as “Not Active”.
Consider POLYVINYL ALCOHOL, for which the IC50 result is reported as “Not Active” and the Ki entry is given as “Not Active”.

In another assay the target is T2, Endothelin-1 receptor (Homo sapiens, UniProt P25101). Note: in other assays of this panel Not Active means under 50% inhibition at 10 µM.
T2 sequence (P25101 whole entry): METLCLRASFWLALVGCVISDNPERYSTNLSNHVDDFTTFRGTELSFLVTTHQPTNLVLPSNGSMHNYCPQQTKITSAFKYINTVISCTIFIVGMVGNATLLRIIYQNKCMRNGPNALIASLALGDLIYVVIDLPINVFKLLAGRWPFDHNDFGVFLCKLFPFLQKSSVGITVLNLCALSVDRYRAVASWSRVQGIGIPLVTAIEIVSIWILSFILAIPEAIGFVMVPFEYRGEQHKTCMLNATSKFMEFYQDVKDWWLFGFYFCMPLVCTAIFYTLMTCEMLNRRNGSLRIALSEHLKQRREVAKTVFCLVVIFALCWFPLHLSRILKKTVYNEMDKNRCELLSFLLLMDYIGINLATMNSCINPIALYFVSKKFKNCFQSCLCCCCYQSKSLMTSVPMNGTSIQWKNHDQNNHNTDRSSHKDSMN
Test: not given
It counts as cell membranes, CHO-K1, Membrane. As to conditions: cho-k1.
For COBALT(II) ACETYLACETONATE, the IC50 result is listed as “Not Active” and the Ki result is “Not Active”.
On to INSULIN HUMAN, for which the IC50 result was “Not Active” and the Ki entry is given as “Not Active”.
Take POLYVINYL ALCOHOL: the IC50 entry is reported as “Not Active” and the Ki result is given as “Not Active”.

A further assay deals with T3, D(4) dopamine receptor (Homo sapiens, UniProt P21917).
T3 sequence (P21917 whole entry): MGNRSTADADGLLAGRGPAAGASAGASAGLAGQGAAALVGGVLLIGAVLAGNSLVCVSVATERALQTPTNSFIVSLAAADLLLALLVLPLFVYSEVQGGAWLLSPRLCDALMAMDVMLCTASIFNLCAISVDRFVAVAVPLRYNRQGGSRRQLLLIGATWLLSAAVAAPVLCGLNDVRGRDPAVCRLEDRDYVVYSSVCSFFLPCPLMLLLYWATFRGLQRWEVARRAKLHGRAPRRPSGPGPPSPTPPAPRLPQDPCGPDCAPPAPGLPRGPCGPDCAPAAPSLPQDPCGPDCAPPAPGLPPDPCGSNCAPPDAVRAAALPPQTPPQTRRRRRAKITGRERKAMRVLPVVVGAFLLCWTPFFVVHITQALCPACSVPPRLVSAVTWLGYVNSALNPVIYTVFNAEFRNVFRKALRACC
Kind of assay: DRUGMATRIX: Dopamine D4.2 radioligand binding (ligand: [3H] Spiperone). It is filed as cell membranes, CHO-K1, Membrane. To be noted: cho-k1; Not Active = under 50% inhibition at 10 µM.
For COBALT(II) ACETYLACETONATE, the IC50 result is “Not Active” and the Ki entry is recorded as “Not Active”.
Take INSULIN HUMAN: the IC50 result is on record as “Not Active” and the Ki result was “Not Active”.
In the case of POLYVINYL ALCOHOL, the IC50 entry is “Not Active” and the Ki entry was “Not Active”.

For the next assay, the target named is T4, Calcitonin receptor (Homo sapiens, UniProt P30988). Note: in other assays of this panel Not Active means under 50% inhibition at 10 µM.
T4 sequence (P30988 whole entry): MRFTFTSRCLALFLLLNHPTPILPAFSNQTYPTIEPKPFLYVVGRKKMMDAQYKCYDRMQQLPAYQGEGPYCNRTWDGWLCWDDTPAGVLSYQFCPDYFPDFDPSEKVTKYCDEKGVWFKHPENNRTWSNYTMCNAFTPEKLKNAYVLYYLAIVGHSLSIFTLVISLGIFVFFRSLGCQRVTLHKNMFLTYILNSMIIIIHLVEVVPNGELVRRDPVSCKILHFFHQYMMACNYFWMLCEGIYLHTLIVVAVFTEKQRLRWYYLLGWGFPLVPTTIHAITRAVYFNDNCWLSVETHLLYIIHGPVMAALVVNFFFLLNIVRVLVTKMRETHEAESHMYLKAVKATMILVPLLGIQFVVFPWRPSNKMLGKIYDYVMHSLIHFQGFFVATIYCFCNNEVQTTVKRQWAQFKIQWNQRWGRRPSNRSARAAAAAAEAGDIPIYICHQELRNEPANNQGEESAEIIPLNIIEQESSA
Test: not given
It is filed as cell membranes, Membrane. To be noted: t47d.
With COBALT(II) ACETYLACETONATE, the IC50 entry is reported as “Not Active” and the Ki entry is “Not Active”.
In the case of INSULIN HUMAN, the IC50 result is on record as “Not Active” and the Ki result is given as “Not Active”.
As to POLYVINYL ALCOHOL, the IC50 result is reported as “Not Active” and the Ki entry is “Not Active”.
